Several values for one entry are separate records, joined by “and”; a condition that tells them apart may be missing. Identical values can stand only once.
What was measured:
Retinal Reductase = assay: Assay for retinal reductase activity, rat liver microsomes (to identify B3); assay type: biochemical; settings: test compound final 100 μM
Description: 2.5 Assay for Retinal Reductase Activity (to Identify B3)
All stock solution were prepared as above with the following substitutions:
10 mM all trans Retinaldehyde (Sigma R2500) in DMSO—instead of retinol.
In a two-dram glass vial with screw cap, add the following in order:
25 μl diluted Microsomes (final=100 μg)—use boiled Microsomes for controls and regular Microsomes for test samples.
4 μl of 200 mM NADPH (final=2 mM)
Follow the same incubation and extraction procedure as detailed above.
Samples for retinoid quantitation by HPLC were prepared by dissolving the residue in each vial with 100 μL of methanol. […] Aliquots of 60 μL were injected immediately and analysed for retinoid content.
This system consisted of a 20 mins. linear gradient from 68:32 (v/v) methanol/water containing 10 mM ammonium acetate to 4:1(v/v) methanol:dichloromethane followed by a 5 mins. hold at a flow race of 1 mL/min. The column eluate was monitored from 300 nm to 400 nm.

[1] = test system: transglutaminase (TGase I); assay: Transglutaminase (Tgase) ELISA assay in cultured keratinocytes with retinol and boosters; assay type: cell-based, human; settings: for TG as % C Compd 2 / TG as % C, Compd 3 / TG as % C Compd 1: concentration one log below IC20; for TG as % C, Compd 3: Compound 3 alone; for IC20: IC20 (80% of control); for Tgase levels (Mean): with 10^-7 M retinol
Description: For this reason, a transalutaminase (Tgase) assay was utilised.
Thus TGase I is a useful marker of epidermal keratinocyte differentiation with high TGase I levels indicating a more differentiated state. An ELISA based TGase I assay, using a TGase I antibody, was used to assess the state of differentiation of the cultured keratinocytes in the examples that follow.
Keratinocytes (cultured as described above) were plated in 96 well plates at a density of 4,000-5,000 cells per well in 200 μl media. After incubation for two to three days, or until cells are ˜50% confluent, the media was changed to media containing test compounds (five replicates per test). The cells were cultured for a further 96 hours after which time the media was aspirated and the plates stored at −70° C. Plates were removed from the freezer, and the cells were washed twice with 200 μl of 1×PBS. The cells were incubated for one hour at room temperature (R/T) with TBS/5% BSA (wash buffer, bovine serum albumin). Next the TGase primary antibody was added: 50 μl of monoclonal anti-Tgase I Ab B.C. diluted 1:2000 in wash buffer. The primary antibody was incubated for 2 hours at 37° C. and then rinsed 6× with wash buffer. Cells were then incubated with 50 μl of secondary antibody (Fab fragment, peroxidase conjugated anti-mouse IgG obtaining from Amersham) diluted 1:4,000 in wash buffer for two hours at 37° C., then rinsed three times with wash buffer. Following the rinse with washing buffer, the cells were rinsed 3× with PBS. For colourimetric development, the cells were incubated with 100 μl substrate solution (4 mg o-phenylenediamine and 3.3 μl 30% H2O2 in 10 ml 0.1M citrate buffer pH 5.0) for exactly five minutes, R/T, in darkness (under aluminum foil). The reaction was stopped by the addition of 50 μl 4 N H2SO4. […] Out of the five replicates, four were treated with both antibodies, the fifth one was use as a Tgase background control. Tgase levels were determined and expressed as percentage control.
A suspension of keratinocytes was prepared at a concentration of 3000 cells/200 μl/well in KGM medium (Used 3×10^5 cells/12 ml media in each microtitre plate)
200 μl of the keratinocyte suspension was transferred into each of the inner 60 wells only.
Each plate was incubated at 37° C. and 5% CO2 for 3 days or until cells are ˜50% confluent.
Stock solutions of the samples were prepared in DMSO.
The samples were diluted to desired concentration with the final assay concentration of DMSO being 0.1%.

Retinol Dehydrogenase = assay: Assay for retinol dehydrogenase activity, rat liver microsomes (to identify B2); assay type: biochemical; settings: test compound final 100 μM
Description: 2.2 Isolation of Rat Liver Microsomes (4)
The resulting homogenate was successively centrifuged for 30 min. at 10,000 g, 30 min. at 20,000 g, and 15 min. at 30,000 g, and the resulting supernatant was ultra-centrifuged for 80 min. at 105,000 g. […] Protein concentrations were determined as described above.
2.4 Assay for Retinol Dehydrogenase Activity (to Identify B2)
The following stock solutions were prepared:
50 mM KH2PO4, pH 7.4 buffer, sterile filtered.
10 mM all trans Retinol (Sigma 87632) in DMSO.
200 mM Nicotinamide adenine dinucleotide phosphate, sodium salt (NADP) (Sigma N0505) in sterile water.
40 mM test compound in appropriate solvent (water, buffer, ethanol, chloroform or DMSO).
1:10 dilution of rat liver Microsomes in 50 mM KH2PO4, pH 7.4 buffer (4 μg/μl).
In a two-dram glass vial with screw cap, the following were added in order:
Buffer to give a final volume of 400 μl
25 μl diluted Microsomes (final=100 μg)—boiled Microsomes were used for controls and regular Microsomes for test samples.
4 μl of 200 mM NADP (final=2 mM)
1 μl of 40 mM test compound (final=100 μM)
8 μl of 10 mM retinol (final=200 μM)
The vials were incubated in a 37° C. shaking water bath for 45 minutes. 500 μl ice-cold ethanol was added to each vial to quench the reaction. The retinoids were extracted twice with ice cold hexane (2.7 ml per extraction). […]

[2] = Compound 2 alone, in the presence of 10^-7M retinol
[3] = in the presence of 10^-7M retinol
[4] = compound tested individually in the presence of 10^-7 M retinol

## CC1(C)[C@@H](O)CC[C@]2(C)[C@H]3C(=O)C=C4[C@@H]5C[C@@](C)(C(=O)O)CC[C@]5(C)CC[C@@]4(C)[C@]3(C)CC[C@@H]12 [Glycyrretinic Acid, Glycyrrhetinic Acid]
Retinal Reductase
  % Inhibition Retinal Reductase: 38% +/− 1
[1]; [2]
  TG as % C Compd 2: 91 % C
[1]; [3]
  TG as % C, Compd 3: 91 % C
[1]; [4]
  IC20: 5.96 µM
[1]; Tgase inhibition, compound tested individually in the presence of 10^-7 M retinol, read-out: IC50
  IC50: 8.64 µM
[1]; compound 2 alone, with retinol
  TG as % C Compd 2: 92 % C

## COc1cc(C=O)ccc1O [Vanillin]
Retinal Reductase
  % Inhibition Retinal Reductase: 6%
[1]; [3]
  TG as % C, Compd 3: 134 % C
[1]; [4]
  IC20: 8470 µM

## Sphingomyelin
[1]; [3]
  TG as % C, Compd 3: 60 % C
[1]; booster 1.0E−05 Molar
  Tgase levels (Mean): 77.8 % of control
[1]; booster 1.1E−06 Molar
  Tgase levels (Mean): 98.8 % of control
[1]; booster 1.23E−07 Molar
  Tgase levels (Mean): 70.0 % of control
[1]; booster 1.65E−09 Molar
  Tgase levels (Mean): 68.4 % of control
[1]; booster 3.0E−05 Molar
  Tgase levels (Mean): 45 % of control
[1]; booster 3.29E−10 Molar
  Tgase levels (Mean): 69.2 % of control
[1]; booster 3.33E−06 Molar
  Tgase levels (Mean): 76.4 % of control
[1]; booster 3.73E−07 Molar
  Tgase levels (Mean): 91.6 % of control
[1]; booster 4.10E−08 Molar
  Tgase levels (Mean): 74.6 % of control
[1]; booster 8.2E−08 Molar
  Tgase levels (Mean): 115.2 % of control
[1]; compound 2 alone, with retinol
  TG as % C Compd 2: 84 % C and 98 % C
Retinol Dehydrogenase
  % Increase Retinol Dehydrogenase: 26% increase

## CC1(C)[C@@H](OC(=O)CCC(=O)O)CC[C@]2(C)[C@H]3C(=O)C=C4[C@@H]5C[C@@](C)(C(=O)O)CC[C@]5(C)CC[C@@]4(C)[C@]3(C)CC[C@@H]12 [Carbenoxolone, reference compound]
Retinal Reductase
  % Inhibition Retinal Reductase: 26% +/− 2
[1]; [3]
  TG as % C, Compd 3: 88 % C
[1]; [4]
  IC20: 0.2 µM
[1]; compound 2 alone, with retinol
  TG as % C Compd 2: 164 % C

## Phosphatidyl Choline
[1]; Compound 1 alone, in the presence of 10^-7M retinol
  TG as % C Compd 1: 88 % C
[1]; [2]
  TG as % C Compd 2: 88 % C
[1]; [3]
  TG as % C, Compd 3: 88 % C
[1]; booster 1.2E−08 Molar
  Tgase levels (Mean): 159 % of control
[1]; booster 1.47E−05 Molar
  Tgase levels (Mean): 120.3 % of control
[1]; booster 1.63E−06 Molar
  Tgase levels (Mean): 98.8 % of control
[1]; booster 1.8E−07 Molar
  Tgase levels (Mean): 75.9 % of control
[1]; booster 2.4E−09 Molar
  Tgase levels (Mean): 85.5 % of control
[1]; booster 4.4E−05 Molar
  Tgase levels (Mean): 90.9 % of control
[1]; booster 4.89E−06 Molar
  Tgase levels (Mean): 70.1 % of control
[1]; booster 5.43E−07 Molar
  Tgase levels (Mean): 86.7 % of control
[1]; booster 6.0E−08 Molar
  Tgase levels (Mean): 87.8 % of control
[1]; compound 1 alone, with retinol
  TG as % C Compd 1: 98 % C
[1]; compound 2 alone, with retinol, listed as Phospahtidylcholine
  TG as % C Compd 2: 97 % C
[1]; compound 2 alone, with retinol, listed as Phosphatidyl choline
  TG as % C Compd 2: 98 % C
[1]; compound 2 alone, with retinol, listed as Phosphatidylcholine
  TG as % C Compd 2: 97 % C
Retinol Dehydrogenase
  % Increase Retinol Dehydrogenase: 21% increase

Source: US8409550B2, “Method for treating skin with retinoids and retinoid boosters” (Unilever Home & Personal Care, USA, Division of Conopco, …, priority 2000, dated 2013)
